{
  "source": "paper doi:10.1101/2021.09.30.462449v1",
  "about": "(biorxiv, 2021)",
  "assay_in_all_cases": "biochemical",
  "key": {"[1]": {"target": "DYRK1B (Homo sapiens, UniProt Q9Y463)", "sequence (Q9Y463 whole entry)": "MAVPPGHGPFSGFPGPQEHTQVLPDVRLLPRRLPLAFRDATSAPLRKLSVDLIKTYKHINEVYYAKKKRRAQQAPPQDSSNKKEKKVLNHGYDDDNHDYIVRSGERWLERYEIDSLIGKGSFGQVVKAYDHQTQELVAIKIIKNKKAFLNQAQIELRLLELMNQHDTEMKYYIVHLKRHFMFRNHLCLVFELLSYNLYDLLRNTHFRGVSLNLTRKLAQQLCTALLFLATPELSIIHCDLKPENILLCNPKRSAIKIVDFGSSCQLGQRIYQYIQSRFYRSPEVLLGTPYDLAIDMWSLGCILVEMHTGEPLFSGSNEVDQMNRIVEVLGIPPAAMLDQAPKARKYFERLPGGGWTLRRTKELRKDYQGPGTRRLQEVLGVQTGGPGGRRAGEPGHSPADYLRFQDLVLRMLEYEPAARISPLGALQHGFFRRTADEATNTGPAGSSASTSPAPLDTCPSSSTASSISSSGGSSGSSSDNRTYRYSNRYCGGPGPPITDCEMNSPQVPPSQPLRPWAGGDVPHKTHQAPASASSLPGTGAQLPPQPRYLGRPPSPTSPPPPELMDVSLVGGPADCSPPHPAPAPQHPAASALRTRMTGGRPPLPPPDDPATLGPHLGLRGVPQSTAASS", "details": "read-out: % inhibition mean (Z'Lyte)"}, "[2]": {"target": "LTK (TYK1) (Homo sapiens, UniProt P29376)", "details": "read-out: % inhibition mean (Z'Lyte)"}, "[3]": {"target": "STK33 (Homo sapiens, UniProt Q9BYT3)", "sequence (Q9BYT3 whole entry)": "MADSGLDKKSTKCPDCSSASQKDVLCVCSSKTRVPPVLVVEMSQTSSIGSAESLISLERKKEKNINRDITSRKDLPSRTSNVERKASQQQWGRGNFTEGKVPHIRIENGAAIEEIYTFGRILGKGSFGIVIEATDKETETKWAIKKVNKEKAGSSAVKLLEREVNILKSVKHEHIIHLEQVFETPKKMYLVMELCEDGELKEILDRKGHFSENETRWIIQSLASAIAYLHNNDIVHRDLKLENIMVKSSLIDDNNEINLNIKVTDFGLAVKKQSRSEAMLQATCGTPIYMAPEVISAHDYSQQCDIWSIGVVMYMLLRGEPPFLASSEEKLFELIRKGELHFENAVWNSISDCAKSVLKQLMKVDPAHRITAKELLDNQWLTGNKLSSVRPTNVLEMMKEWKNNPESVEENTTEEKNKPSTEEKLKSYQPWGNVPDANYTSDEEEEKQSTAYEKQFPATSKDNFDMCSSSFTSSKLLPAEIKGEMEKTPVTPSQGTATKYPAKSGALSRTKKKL", "details": "read-out: % inhibition mean (Lanthascreen)"}, "[4]": {"target": "MAPK8 (JNK1) (Homo sapiens, UniProt P45983)", "details": "read-out: % inhibition mean (Z'Lyte)"}, "[5]": {"target": "PASK (Homo sapiens, UniProt Q96RG2)", "details": "read-out: % inhibition mean (Z'Lyte)"}, "[6]": {"target": "ROCK1 (Homo sapiens, UniProt Q13464)", "details": "read-out: % inhibition mean (Z'Lyte)"}, "[7]": {"target": "ROCK2 (Homo sapiens, UniProt O75116)", "details": "read-out: % inhibition mean (Z'Lyte)"}, "[8]": {"target": "ABL1 F317I (Homo sapiens, UniProt P00519, F317I)", "details": "read-out: % inhibition mean (Z'Lyte)"}, "[9]": {"target": "BLK (Homo sapiens, UniProt P51451)", "details": "read-out: % inhibition mean (Z'Lyte)"}, "[10]": {"target": "FLT1 (VEGFR1) (Homo sapiens, UniProt P17948)", "details": "read-out: % inhibition mean (Z'Lyte)"}, "[11]": {"target": "AKT2 (PKB beta) (Homo sapiens, UniProt P31751)", "details": "read-out: % inhibition mean (Z'Lyte)"}, "[12]": {"target": "PAK7 (KIAA1264) (Homo sapiens, UniProt Q9P286)", "details": "read-out: % inhibition mean (Z'Lyte)"}, "[13]": {"target": "ABL1 (Homo sapiens, UniProt P00519)", "details": "read-out: % inhibition mean (Z'Lyte)"}, "[14]": {"target": "PTK2 (FAK) (Homo sapiens, UniProt Q05397)", "sequence (Q05397 whole entry)": "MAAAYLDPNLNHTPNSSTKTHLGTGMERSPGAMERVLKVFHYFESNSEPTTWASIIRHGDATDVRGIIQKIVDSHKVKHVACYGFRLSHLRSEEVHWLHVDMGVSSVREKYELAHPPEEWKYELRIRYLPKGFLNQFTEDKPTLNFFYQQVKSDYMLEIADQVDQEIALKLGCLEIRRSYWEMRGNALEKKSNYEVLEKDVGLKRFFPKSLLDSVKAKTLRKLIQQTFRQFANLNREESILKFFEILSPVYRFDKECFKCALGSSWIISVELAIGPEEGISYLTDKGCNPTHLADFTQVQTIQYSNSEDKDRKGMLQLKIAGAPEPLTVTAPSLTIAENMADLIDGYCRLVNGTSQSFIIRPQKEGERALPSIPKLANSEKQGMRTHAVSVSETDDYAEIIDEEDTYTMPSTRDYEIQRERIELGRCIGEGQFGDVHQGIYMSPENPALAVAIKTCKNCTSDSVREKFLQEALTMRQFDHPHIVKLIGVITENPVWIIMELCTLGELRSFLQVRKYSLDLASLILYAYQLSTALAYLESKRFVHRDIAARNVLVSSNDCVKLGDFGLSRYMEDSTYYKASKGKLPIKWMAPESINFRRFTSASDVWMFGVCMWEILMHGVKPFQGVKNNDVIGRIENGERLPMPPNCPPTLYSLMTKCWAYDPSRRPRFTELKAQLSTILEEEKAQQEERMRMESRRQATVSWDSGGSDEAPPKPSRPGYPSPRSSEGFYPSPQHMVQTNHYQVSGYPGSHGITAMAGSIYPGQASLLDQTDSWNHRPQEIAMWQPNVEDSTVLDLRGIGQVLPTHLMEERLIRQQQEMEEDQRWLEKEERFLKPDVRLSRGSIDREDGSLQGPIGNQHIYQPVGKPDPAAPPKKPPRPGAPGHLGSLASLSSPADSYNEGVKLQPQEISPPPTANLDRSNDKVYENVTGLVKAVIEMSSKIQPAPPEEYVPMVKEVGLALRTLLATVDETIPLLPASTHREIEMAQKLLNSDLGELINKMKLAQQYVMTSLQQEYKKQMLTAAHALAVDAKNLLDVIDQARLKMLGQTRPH", "details": "read-out: % inhibition mean (Z'Lyte)"}, "[15]": {"target": "PAK2 (PAK65) (Homo sapiens, UniProt Q13177)", "sequence (Q13177 whole entry)": "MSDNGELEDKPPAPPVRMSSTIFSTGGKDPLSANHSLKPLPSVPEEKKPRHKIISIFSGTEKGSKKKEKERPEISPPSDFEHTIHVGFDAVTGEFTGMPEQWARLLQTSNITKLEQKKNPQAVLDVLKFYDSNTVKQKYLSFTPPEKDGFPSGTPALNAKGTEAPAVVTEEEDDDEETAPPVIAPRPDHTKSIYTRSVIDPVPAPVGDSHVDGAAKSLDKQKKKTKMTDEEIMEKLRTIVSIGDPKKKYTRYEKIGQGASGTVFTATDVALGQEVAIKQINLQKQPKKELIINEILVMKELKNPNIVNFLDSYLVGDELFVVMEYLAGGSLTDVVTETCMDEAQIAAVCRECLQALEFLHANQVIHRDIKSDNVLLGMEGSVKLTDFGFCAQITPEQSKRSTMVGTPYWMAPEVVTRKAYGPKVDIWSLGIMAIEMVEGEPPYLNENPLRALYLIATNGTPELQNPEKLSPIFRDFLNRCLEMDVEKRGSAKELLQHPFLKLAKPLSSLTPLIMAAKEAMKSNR", "details": "read-out: % inhibition mean (Z'Lyte)"}, "[16]": {"target": "PAK1 (Homo sapiens, UniProt Q13153)", "sequence (Q13153 whole entry)": "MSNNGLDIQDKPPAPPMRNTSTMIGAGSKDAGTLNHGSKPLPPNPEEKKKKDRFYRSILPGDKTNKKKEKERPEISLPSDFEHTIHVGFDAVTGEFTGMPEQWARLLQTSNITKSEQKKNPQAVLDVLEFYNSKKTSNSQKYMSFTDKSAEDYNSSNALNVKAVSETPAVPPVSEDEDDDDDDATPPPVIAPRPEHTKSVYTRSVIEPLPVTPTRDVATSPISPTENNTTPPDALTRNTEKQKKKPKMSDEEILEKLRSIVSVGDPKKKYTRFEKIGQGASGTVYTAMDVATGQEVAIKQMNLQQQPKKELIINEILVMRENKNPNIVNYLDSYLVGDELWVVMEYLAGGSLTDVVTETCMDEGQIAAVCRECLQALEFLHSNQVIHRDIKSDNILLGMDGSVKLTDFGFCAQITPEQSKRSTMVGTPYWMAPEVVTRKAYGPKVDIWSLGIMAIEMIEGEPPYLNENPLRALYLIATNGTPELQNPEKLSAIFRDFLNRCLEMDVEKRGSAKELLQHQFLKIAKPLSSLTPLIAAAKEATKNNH", "details": "read-out: % inhibition mean (Z'Lyte)"}, "[17]": {"target": "CAMK1D (CaMKI delta) (Homo sapiens, UniProt Q8IU85)", "details": "read-out: % inhibition mean (Z'Lyte)"}, "[18]": {"target": "ITK (Homo sapiens, UniProt Q08881)", "details": "read-out: % inhibition mean (Z'Lyte)"}, "[19]": {"target": "TEK (TIE2) Y897S (Homo sapiens, UniProt Q02763, Y897S)", "details": "read-out: % inhibition mean (Z'Lyte)"}, "[20]": {"target": "BMX (Homo sapiens, UniProt P51813)", "details": "read-out: % inhibition mean (Z'Lyte)"}, "[21]": {"target": "CSNK1E (CK1 epsilon) (Homo sapiens, UniProt P49674)", "details": "read-out: % inhibition mean (Z'Lyte)"}, "[22]": {"target": "GRK6 (Homo sapiens, UniProt P43250)", "details": "read-out: % inhibition mean (Z'Lyte)"}, "[23]": {"target": "EPHA8 (Homo sapiens, UniProt P29322)", "details": "read-out: % inhibition mean (Z'Lyte)"}, "[24]": {"target": "PEAK1 (Homo sapiens, UniProt Q9H792)", "sequence (Q9H792 whole entry)": "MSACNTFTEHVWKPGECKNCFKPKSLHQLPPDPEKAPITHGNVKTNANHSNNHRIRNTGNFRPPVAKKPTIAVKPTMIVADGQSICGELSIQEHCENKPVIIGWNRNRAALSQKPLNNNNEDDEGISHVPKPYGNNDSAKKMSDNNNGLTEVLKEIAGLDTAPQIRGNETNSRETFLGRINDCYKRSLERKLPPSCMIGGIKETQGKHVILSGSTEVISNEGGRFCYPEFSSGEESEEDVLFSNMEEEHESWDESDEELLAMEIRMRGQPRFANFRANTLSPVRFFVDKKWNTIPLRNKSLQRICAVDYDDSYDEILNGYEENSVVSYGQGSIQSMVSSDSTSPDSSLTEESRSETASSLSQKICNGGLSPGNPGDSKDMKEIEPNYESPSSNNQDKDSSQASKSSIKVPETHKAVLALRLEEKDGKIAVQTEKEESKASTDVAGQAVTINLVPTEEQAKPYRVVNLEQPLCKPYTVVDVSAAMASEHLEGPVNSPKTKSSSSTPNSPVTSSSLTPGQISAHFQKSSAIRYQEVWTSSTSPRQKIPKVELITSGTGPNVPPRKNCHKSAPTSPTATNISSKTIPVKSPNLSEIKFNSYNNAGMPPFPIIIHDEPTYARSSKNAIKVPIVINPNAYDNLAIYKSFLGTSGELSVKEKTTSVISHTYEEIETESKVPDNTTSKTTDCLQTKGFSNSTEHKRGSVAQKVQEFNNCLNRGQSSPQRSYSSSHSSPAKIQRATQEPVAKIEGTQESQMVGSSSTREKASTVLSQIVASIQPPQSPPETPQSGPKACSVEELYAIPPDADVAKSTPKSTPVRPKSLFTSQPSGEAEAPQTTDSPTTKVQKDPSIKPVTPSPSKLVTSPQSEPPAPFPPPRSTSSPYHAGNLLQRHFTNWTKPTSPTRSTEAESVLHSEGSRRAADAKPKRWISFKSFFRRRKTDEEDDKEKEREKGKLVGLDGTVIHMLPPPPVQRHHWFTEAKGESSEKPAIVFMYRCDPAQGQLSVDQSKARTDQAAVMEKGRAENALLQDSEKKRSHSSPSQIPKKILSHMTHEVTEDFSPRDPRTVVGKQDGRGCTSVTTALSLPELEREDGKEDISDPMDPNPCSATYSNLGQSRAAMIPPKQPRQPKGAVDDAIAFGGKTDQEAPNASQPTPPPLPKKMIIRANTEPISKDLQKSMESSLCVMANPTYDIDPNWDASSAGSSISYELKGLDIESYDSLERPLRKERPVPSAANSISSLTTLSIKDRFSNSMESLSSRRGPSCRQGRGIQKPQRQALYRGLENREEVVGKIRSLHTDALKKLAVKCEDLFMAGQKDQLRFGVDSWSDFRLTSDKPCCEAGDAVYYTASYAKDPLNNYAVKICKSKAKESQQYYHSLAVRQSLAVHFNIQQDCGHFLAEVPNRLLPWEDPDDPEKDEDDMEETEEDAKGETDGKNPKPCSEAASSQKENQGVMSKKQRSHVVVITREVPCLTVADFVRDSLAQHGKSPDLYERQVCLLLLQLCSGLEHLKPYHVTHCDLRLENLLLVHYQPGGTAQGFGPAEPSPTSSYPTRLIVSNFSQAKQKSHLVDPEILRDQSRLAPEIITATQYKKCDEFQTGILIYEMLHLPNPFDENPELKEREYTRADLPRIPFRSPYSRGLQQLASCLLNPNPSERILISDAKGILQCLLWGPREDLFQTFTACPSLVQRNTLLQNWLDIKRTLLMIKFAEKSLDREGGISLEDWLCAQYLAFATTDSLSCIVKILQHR", "details": "read-out: % inhibition mean (Z'Lyte)"}, "[25]": {"target": "NTRK3 (TRKC) (Homo sapiens, UniProt Q16288)", "details": "read-out: % inhibition mean (Z'Lyte)"}, "[26]": {"target": "NEK6 (Homo sapiens, UniProt Q9HC98)", "details": "read-out: % inhibition mean (Z'Lyte)"}, "[27]": {"target": "RPS6KA4 (MSK2) (Homo sapiens, UniProt O75676)", "details": "read-out: % inhibition mean (Z'Lyte)"}, "[28]": {"target": "RPS6KA5 (MSK1) (Homo sapiens, UniProt O75582)", "details": "read-out: % inhibition mean (Z'Lyte)"}, "[29]": {"target": "MAPKAPK2 (Homo sapiens, UniProt P49137)", "details": "read-out: % inhibition mean (Z'Lyte)"}},
  "data": [
    {"molecule": "COc1ccc2nc3cc(Cl)ccc3c(Nc3cc(CN4CCCC4)c(O)c(CN4CCCC4)c3)c2n1", "note": "[Pyronaridine, 4-[(7-Chloro-2-methoxybenzo[b][1,5]naphthyridin-10-yl)amino]-2,6-bis(1-pyrrolidinylmethyl)phenol phosphate (1:4)]", "values": [
      {"measurement": "inhibition at 1 µM", "setting": "[1]", "result": 1, "unit": "%"},
      {"measurement": "inhibition at 1 µM", "setting": "[2]", "result": -1, "unit": "%"},
      {"measurement": "inhibition at 1 µM", "setting": "[3]", "result": 11, "unit": "%"},
      {"measurement": "inhibition at 1 µM", "setting": "[4]", "result": 3, "unit": "%"},
      {"measurement": "inhibition at 1 µM", "setting": "[5]", "result": -4, "unit": "%"},
      {"measurement": "inhibition at 1 µM", "setting": "[6]", "result": 2, "unit": "%"},
      {"measurement": "inhibition at 1 µM", "setting": "[7]", "result": 1, "unit": "%"},
      {"measurement": "inhibition at 1 µM", "setting": "[8]", "result": 0, "unit": "%"},
      {"measurement": "inhibition at 1 µM", "setting": "[9]", "result": 3, "unit": "%"},
      {"measurement": "inhibition at 1 µM", "setting": "[10]", "result": -6, "unit": "%"},
      {"measurement": "inhibition at 1 µM", "setting": "[11]", "result": 1, "unit": "%"},
      {"measurement": "inhibition at 1 µM", "setting": "[12]", "result": -5, "unit": "%"},
      {"measurement": "inhibition at 1 µM", "setting": "[13]", "result": 2, "unit": "%"},
      {"measurement": "inhibition at 1 µM", "setting": "[14]", "result": 2, "unit": "%"},
      {"measurement": "inhibition at 1 µM", "setting": "[15]", "result": -1, "unit": "%"},
      {"measurement": "inhibition at 1 µM", "setting": "[16]", "result": 6, "unit": "%"},
      {"measurement": "inhibition at 1 µM", "setting": "[17]", "result": -26, "unit": "%"},
      {"measurement": "inhibition at 1 µM", "setting": "[18]", "result": 2, "unit": "%"},
      {"measurement": "inhibition at 1 µM", "setting": "[19]", "result": 2, "unit": "%"},
      {"measurement": "inhibition at 1 µM", "setting": "[20]", "result": 11, "unit": "%"},
      {"measurement": "inhibition at 1 µM", "setting": "[21]", "result": 1, "unit": "%"},
      {"measurement": "inhibition at 1 µM", "setting": "[22]", "result": -1, "unit": "%"},
      {"measurement": "inhibition at 1 µM", "setting": "[23]", "result": 1, "unit": "%"},
      {"measurement": "inhibition at 1 µM", "setting": "[24]", "result": 1, "unit": "%"},
      {"measurement": "inhibition at 1 µM", "setting": "[25]", "result": 2, "unit": "%"},
      {"measurement": "inhibition at 1 µM", "setting": "[26]", "result": -3, "unit": "%"},
      {"measurement": "inhibition at 1 µM", "setting": "[27]", "result": -4, "unit": "%"},
      {"measurement": "inhibition at 1 µM", "setting": "[28]", "result": 2, "unit": "%"},
      {"measurement": "inhibition at 1 µM", "setting": "[29]", "result": 10, "unit": "%"}
    ]}
  ]
}
